The text below walks through data of patent publication US20240240224A1, “FLUORESCENT D-TYPE AMINO ACID METABOLISM MARKER-BASED METHOD FOR DETECTING ANTIBACTERIAL DRUG SENSITIVITY TEST” (priority 2020, published 2024).

One test deals with E. faecium Ef26. Briefly: FaAST (FDAA metabolic labeling method). It counts as cell-based, Enterococcus faecium. Particulars: unit assumed. Summed up:
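Bacteria at OD600=0.05 in CAMHB exposed to antibiotic concentration gradients with Cy5-DAA probe […], 2 h in the dark. Fluorescence read by flow cytometry after PBS dilution; MIC taken from the curve of fluorescence intensity versus antibiotic concentration.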

The test system of the next test is E.coli 1113. In words: FDAA metabolic labeling susceptibility test (Cy5-DAA probe, flow cytometry). It counts as cell-based, Escherichia coli. The conditions noted are these: Escherichia coli; E.coli 1113; Cy5-DAA probe, 2 hours; read-out: MIC, FDAA. For orientation: In flow cytometry, cells or beads pass a laser one at a time.
A further test has as its system E.coli 1146. The description is as above. The test is classed as cell-based, Escherichia coli. The conditions noted are these: Escherichia coli; E.coli 1146; Cy5-DAA probe, 2 hours; read-out: MIC, FDAA.
The next test deals with Pa ATCC 27853. Briefly: BMD susceptibility test. It counts as cell-based, Pseudomonas aeruginosa. Particulars: unit assumed.
The test system of test [1] is alveolar lavage fluid sample 0219, A. baumannii. In words: FaAST (FDAA) susceptibility test of patient alveolar lavage fluid. It counts as cell-based, Acinetobacter baumannii. The conditions noted are these: unit assumed. Summed up:
(§1)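 Patient BALF mixed 1:1 with double-strength CAMHB, then combined with antibiotics at graded concentrations and Cy5-DAA probe (0.15 mM final). Cultured 2 h in the dark, diluted in PBS, and per-sample fluorescence intensity read by flow cytometry as the susceptibility read-out.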

Test [2] relates to alveolar lavage fluid sample 0130, A. baumannii. The test is described as above. It counts as cell-based, Acinetobacter baumannii. The conditions noted are these: unit assumed. The essentials:
as §1

In test [3] the test system is alveolar lavage fluid sample 0206, A. baumannii. The test is described as above. The test is classed as cell-based, Acinetobacter baumannii. Particulars: unit assumed. The essentials: as §1
For test [4], the system named is alveolar lavage fluid sample 0204, A. baumannii. The test is described as above. The test is classed as cell-based, Acinetobacter baumannii. The conditions noted are these: unit assumed. The essentials: as §1
Test [5] concerns E. coli Ec13. In words: BMD susceptibility test. It counts as cell-based, Escherichia coli. Particulars: unit assumed.
Test [6] has as its system Acinetobacter baumannii ABA16. Briefly: VITEK drug sensitivity test. Particulars: unit assumed. It counts as cell-based.
A further test relates to K. pneumoniae Kp6. Briefly: BMD susceptibility test. The test is classed as cell-based, Klebsiella pneumoniae. The conditions noted are these: unit assumed.
Another test relates to E. faecalis ATCC29212. Briefly: BMD susceptibility test. It counts as cell-based, Enterococcus faecalis. The conditions noted are these: unit assumed.
The subject of test [7] is alveolar lavage fluid sample 0203, K. pneumoniae. In words: BMD susceptibility test of patient alveolar lavage fluid. It counts as cell-based, Klebsiella pneumoniae. Particulars: unit assumed. The text has this: (§2) The results of antimicrobial susceptibility test of alveolar lavage fluid of seven patients using FDAA and BMD methods are shown in the following table. The drug-resistant bacteria are shown in bold.

The test system of test [8] is alveolar lavage fluid sample 0226, K. pneumoniae. The description is as above. Particulars: unit assumed. The test is classed as cell-based, Klebsiella pneumoniae.
Text: as §2

The next test deals with S. aureus Sa23. In words: FaAST (FDAA metabolic labeling method). The conditions noted are these: unit assumed. It counts as cell-based, Staphylococcus aureus. As for the experimental part:
(§3) Take the colony to be tested that has been cultured overnight on the plate and fully mix it in normal saline to make a uniform bacterial solution. Dilute it into Cation-Adjusted Mueller Hinton Broth (CAMHB) culture medium to make a bacterial solution with OD600=0.05. • 2. Add 45 μl antibiotic solutions of different concentrations to 96-well plates (see Table 1 for antibiotic concentration gradient settings). • 3. Add 50 μl of the bacterial solution prepared in step 1 to the 96-well plate and mix well. • 4. Add 5 μl of 10 mM Cy5-DAA probe (final concentration 0.15 mM, see FIG. 1 for its structure) into each well, mix well, and cultivate in dark for 2 hours. • 5. Add 200 μl After PBS solution is diluted, the fluorescence intensity of each sample is detected by flow cytometry. The flow detection results are shown in FIG. 4-5, showing the curve of the change of antibiotic concentration gradient and fluorescence intensity. The MIC (minimum inhibitory concentration) can be obtained by referring to this curve.
(§4) Bacteria with antibiotic resistance are shown in bold in the following table.

A further test relates to S. aureus ATCC29213. In words: FaAST (FDAA metabolic labeling method). The test is classed as cell-based, Staphylococcus aureus. The conditions noted are these: unit assumed. Here is the method: as §3, §4
The next test relates to S. aureus Sa22. In words: FaAST (FDAA metabolic labeling method). The conditions noted are these: unit assumed. It counts as cell-based, Staphylococcus aureus. Here is the method: as §3, §4
The next test deals with P. aeruginosa Pa2. Briefly: BMD susceptibility test. The test is classed as cell-based, Pseudomonas aeruginosa. The conditions noted are these: unit assumed.
Test [9] relates to E. coli Ec13. In words: FaAST (FDAA metabolic labeling). Particulars: unit assumed. The test is classed as cell-based, Escherichia coli. The essentials:
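Bacteria at OD600=0.05 in CAMHB mixed with antibiotic dilutions plus Cy5-DAA probe at 0.15 mM final, then incubated 2 h in the dark. Cell-wall labeling fluorescence measured by flow cytometry after PBS dilution.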

≈ marks a conversion by molar mass, not a printed value.

Usually MIC stands for the lowest concentration found to suppress growth.

In the case of `C[C@H]1COc2c(N3CCN(C)CC3)c(F)cc3c(=O)c(C(=O)O)cn1c23` [Levofloxacin, levofloxacin], the FaAST (MIC) was found to be 64 mg/L in the test on E. faecium Ef26; 64 mg/L in [1]; 64 mg/L in test [2]; 64 mg/L in test [3]; 0.25 mg/L in [4]; 1 mg/L with S. aureus Sa23. Also, the FaAST (MIC) with S. aureus ATCC29213 was found to be 0.5 mg/L; in the test with S. aureus Sa22 it was 32 mg/L; in the test with E. coli Ec13 [9] it was 4 mg/L. The minimum inhibitory concentration (MIC) in the test with E.coli 1113 and in the test with E.coli 1146 was not below 16 mg/L in each case. Further, the BMD (MIC) in the test with Pa ATCC 27853 is 0.5 mg/L; in the test with E. coli Ec13 [5], 4 mg/L; in the test on K. pneumoniae Kp6, not above 0.25 mg/L; in the test on E. faecalis ATCC29212, 1 mg/L; in test [7], 0.25 mg/L; in test [8], 1 mg/L. Further, the BMD (MIC) in the test on P. aeruginosa Pa2 turned out to be 0.5 mg/L. The compound further had an MIC, VITEK in test [6] of 16 mg/L (≈ 44.3 µM).
